According to US8183351B2, “Avermectin derivatives” (Bayer Cropscience AG, priority 2006, dated 2012):

Legend:
[1] = system: larvae of the mustard beetle (Phaedon cochleariae); experiment: Phaedon test (PHAECO spray treatment); type: in vivo; conditions: Example G; 4 ppm active compound; sprayed Chinese cabbage discs
Method: Phaedon Test (PHAECO Spray Treatment)
• Solvents: 78 parts by weight of acetone • 1.5 parts by weight of dimethylformamide • Emulsifier: 0.5 part by weight of alkylaryl polyglyycol ether
After the desired period of time, the effect in % is determined. 100% means that all beetle larvae have been killed; 0% means that none of the beetle larvae have been killed.

[2] = system: caterpillars of the army worm (Spodoptera frugiperda); experiment: Spodoptera frugiperda test (SPODFR spray treatment); type: in vivo; conditions: Example I; 4 ppm active compound; sprayed maize leaf discs
Method: Spodoptera frugiperda Test (SPODFR Spray Treatment)
• Solvents: 78.0 parts by weight of acetone • 1.5 parts by weight of dimethylformamide • Emulsifier: 0.5 part by weight of alkylaryl polyglyycol ether
After the desired period of time, the effect in % is determined. 100% means that all caterpillars have been killed; 0% means that none of the caterpillars have been killed.

CC[C@H](C)[C@H]1OC2(C=C[C@@H]1C)C[C@@H]1C[C@@H](C/C=C(\C)[C@@H](OC3CC(OC)C(OC(=O)Cc4cccn4C)C(C)O3)[C@@H](C)/C=C/C=C3\CO[C@@H]4[C@H](O)C(C)=CC(C(=O)O1)[C@]34O)O2 (some centres unmarked) [Example 71]
Kill rate in % after 7 days [1]: 100% | Kill rate in % after 5 days [2]: 100%

CC[C@H](C)[C@H]1OC2(C=C[C@@H]1C)C[C@@H]1C[C@@H](C/C=C(\C)[C@@H](OC3CC(OC)C(OC(=O)CN4CCOCC4=O)C(C)O3)[C@@H](C)/C=C/C=C3\CO[C@@H]4[C@H](O)C(C)=CC(C(=O)O1)[C@]34O)O2 (some centres unmarked) [Example 75]
Kill rate in % after 7 days [1]: 100% | Kill rate in % after 5 days [2]: 100%

CN(C)C1(C)CC1 [Example 74]
Kill rate in % after 7 days [1]: 100% | Kill rate in % after 5 days [2]: 100%

CC[C@H](C)[C@H]1OC2(C=C[C@@H]1C)C[C@@H]1C[C@@H](C/C=C(\C)[C@@H](OC3CC(OC)C(OC(=O)CCN4CCCCC4)C(C)O3)[C@@H](C)/C=C/C=C3\CO[C@@H]4[C@H](O)C(C)=CC(C(=O)O1)[C@]34O)O2 (some centres unmarked) [Example 87]
Kill rate in % after 7 days [1]: 100% | Kill rate in % after 5 days [2]: 100%

CC[C@H](C)[C@H]1OC2(C=C[C@@H]1C)C[C@@H]1C[C@@H](C/C=C(\C)[C@@H](OC3CC(OC)C(OC(=O)CCN4CCN(C)CC4)C(C)O3)[C@@H](C)/C=C/C=C3\CO[C@@H]4[C@H](O)C(C)=CC(C(=O)O1)[C@]34O)O2 (some centres unmarked) [Example 88]
Kill rate in % after 7 days [1]: 100% | Kill rate in % after 5 days [2]: 100%

CC[C@H](C)[C@H]1OC2(C=C[C@@H]1C)C[C@@H]1C[C@@H](C/C=C(\C)[C@@H](OC3CC(OC)C(OC(=O)CN4CCN(Cc5ccccc5)CC4)C(C)O3)[C@@H](C)/C=C/C=C3\CO[C@@H]4[C@H](O)C(C)=CC(C(=O)O1)[C@]34O)O2 (some centres unmarked) [Example 78]
Kill rate in % after 7 days [1]: 100% | Kill rate in % after 5 days [2]: 100%

CC[C@H](C)[C@H]1OC2(C=C[C@@H]1C)C[C@@H]1C[C@@H](C/C=C(\C)[C@@H](OC3CC(OC)C(OC(=O)C4CCCN(C)C4)C(C)O3)[C@@H](C)/C=C/C=C3\CO[C@@H]4[C@H](O)C(C)=CC(C(=O)O1)[C@]34O)O2 (some centres unmarked) [Example 84]
Kill rate in % after 7 days [1]: 100% | Kill rate in % after 5 days [2]: 100%

CC[C@H](C)[C@H]1OC2(C=C[C@@H]1C)C[C@@H]1C[C@@H](C/C=C(\C)[C@@H](OC3CC(OC)C(OC(=O)CN4C(=O)CCC4=O)C(C)O3)[C@@H](C)/C=C/C=C3\CO[C@@H]4[C@H](O)C(C)=CC(C(=O)O1)[C@]34O)O2 (some centres unmarked) [Example 45]
Kill rate in % after 7 days [1]: 100% | Kill rate in % after 5 days [2]: 100%

CC[C@H](C)[C@H]1OC2(C=C[C@@H]1C)C[C@@H]1C[C@@H](C/C=C(\C)[C@@H](OC3CC(OC)C(OC(=O)Cc4cccnc4)C(C)O3)[C@@H](C)/C=C/C=C3\CO[C@@H]4[C@H](O)C(C)=CC(C(=O)O1)[C@]34O)O2 (some centres unmarked) [Example 33]
Kill rate in % after 7 days [1]: 100% | Kill rate in % after 5 days [2]: 100%

CCCCC(=O)OC1C(C)OC(O[C@@H]2/C(C)=C/C[C@@H]3C[C@@H](CC4(C=C[C@H](C)[C@@H]([C@@H](C)CC)O4)O3)OC(=O)C3C=C(C)[C@@H](O)[C@H]4OC/C(=C\C=C\[C@@H]2C)[C@@]34O)CC1OC (some centres unmarked) [Example 29]
Kill rate in % after 7 days [1]: 100% | Kill rate in % after 5 days [2]: 100%

CC[C@H](C)[C@H]1OC2(CC[C@@H]1C)C[C@@H]1C[C@@H](C/C=C(\C)[C@@H](OC3CC(OC)C(OC(=O)CN)C(C)O3)[C@@H](C)/C=C/C=C3\CO[C@@H]4[C@H](O)C(C)=CC(C(=O)O1)[C@]34O)O2 (some centres unmarked) [Example 103]
Kill rate in % after 7 days [1]: 100% | Kill rate in % after 5 days [2]: 100%

CC[C@H](C)[C@H]1OC2(C=C[C@@H]1C)C[C@@H]1C[C@@H](C/C=C(\C)[C@@H](OC3CC(OC)C(OC(=O)CN4CCNCC4)C(C)O3)[C@@H](C)/C=C/C=C3\CO[C@@H]4[C@H](O)C(C)=CC(C(=O)O1)[C@]34O)O2.O=C(O)c1ccccc1.O=C(O)c1ccccc1 (some centres unmarked) [Example 107, 4′-O-(piperazin-1-ylacetyl)-avermectin B1 monosaccharide dibenzoate]
Kill rate in % after 7 days [1]: 100% | Kill rate in % after 5 days [2]: 100%

CC[C@H](C)[C@H]1OC2(C=C[C@@H]1C)C[C@@H]1C[C@@H](C/C=C(\C)[C@@H](OC3CC(OC)C(OC(=O)C4(F)CC4)C(C)O3)[C@@H](C)/C=C/C=C3\CO[C@@H]4[C@H](O)C(C)=CC(C(=O)O1)[C@]34O)O2 (some centres unmarked) [Example 36]
Kill rate in % after 7 days [1]: 100% | Kill rate in % after 5 days [2]: 83%

CC[C@H](C)[C@H]1OC2(C=C[C@@H]1C)C[C@@H]1C[C@@H](C/C=C(\C)[C@@H](OC3CC(OC)C(OC(=O)CC4C(=O)NCCN4C)C(C)O3)[C@@H](C)/C=C/C=C3\CO[C@@H]4[C@H](O)C(C)=CC(C(=O)O1)[C@]34O)O2 (some centres unmarked) [Example 85]
Kill rate in % after 7 days [1]: 83% | Kill rate in % after 5 days [2]: 100%

CC[C@H](C)[C@H]1OC2(C=C[C@@H]1C)C[C@@H]1C[C@@H](C/C=C(\C)[C@@H](OC3CC(OC)C(OC(=O)C(C)c4ccc(Cl)nc4)C(C)O3)[C@@H](C)/C=C/C=C3\CO[C@@H]4[C@H](O)C(C)=CC(C(=O)O1)[C@]34O)O2 (some centres unmarked) [Example 69]
Kill rate in % after 7 days [1]: 100% | Kill rate in % after 5 days [2]: 100%

CC[C@H](C)[C@H]1OC2(C=C[C@@H]1C)C[C@@H]1C[C@@H](C/C=C(\C)[C@@H](OC3CC(OC)C(OC(=O)CN4CCN(C)CC4)C(C)O3)[C@@H](C)/C=C/C=C3\CO[C@@H]4[C@H](O)C(C)=CC(C(=O)O1)[C@]34O)O2 (some centres unmarked) [Example 76]
Kill rate in % after 7 days [1]: 100% | Kill rate in % after 5 days [2]: 100%

CC[C@H](C)[C@H]1OC2(C=C[C@@H]1C)C[C@@H]1C[C@@H](C/C=C(\C)[C@@H](OC3CC(OC)C(OC(=O)C(C)CN(C)C)C(C)O3)[C@@H](C)/C=C/C=C3\CO[C@@H]4[C@H](O)C(C)=CC(C(=O)O1)[C@]34O)O2 (some centres unmarked) [Example 82]
Kill rate in % after 7 days [1]: 100% | Kill rate in % after 5 days [2]: 100%

CCC(C)C1OC2(C=CC1C)CC1CC(CC=C(C)C(OC3CC(OC)C(OC(=O)C(C)N(C)C)C(C)O3)C(C)C=CC=C3COC4C(O)C(C)=CC(C(=O)O1)C34O)O2 (centres unmarked) [Example 81]
Kill rate in % after 7 days [1]: 100% | Kill rate in % after 5 days [2]: 100%

CC[C@H](C)[C@H]1OC2(C=C[C@@H]1C)C[C@@H]1C[C@@H](C/C=C(\C)[C@@H](OC3CC(OC)C(OC(=O)Cn4ccc(C(F)(F)F)n4)C(C)O3)[C@@H](C)/C=C/C=C3\CO[C@@H]4[C@H](O)C(C)=CC(C(=O)O1)[C@]34O)O2 (some centres unmarked) [Example 59]
Kill rate in % after 7 days [1]: 100% | Kill rate in % after 5 days [2]: 100%

CC[C@H](C)[C@H]1OC2(C=C[C@@H]1C)C[C@@H]1C[C@@H](C/C=C(\C)[C@@H](OC3CC(OC)C(OC(=O)Cn4cnnn4)C(C)O3)[C@@H](C)/C=C/C=C3\CO[C@@H]4[C@H](O)C(C)=CC(C(=O)O1)[C@]34O)O2 (some centres unmarked) [Example 42]
Kill rate in % after 7 days [1]: 83% | Kill rate in % after 5 days [2]: 100%

CC[C@H](C)[C@H]1OC2(C=C[C@@H]1C)C[C@@H]1C[C@@H](C/C=C(\C)[C@@H](OC3CC(OC)C(OC(=O)C(C)N4CCNCC4)C(C)O3)[C@@H](C)/C=C/C=C3\CO[C@@H]4[C@H](O)C(C)=CC(C(=O)O1)[C@]34O)O2 (some centres unmarked) [Example 105]
Kill rate in % after 7 days [1]: 100% | Kill rate in % after 5 days [2]: 100%

CCC(C)C1OC2(C=CC1C)CC1CC(CC=C(C)C(OC3CC(OC)C(OC(=O)C(C)NC(=O)OC(C)(C)C)C(C)O3)C(C)C=CC=C3COC4C(O)C(C)=CC(C(=O)O1)C34O)O2 (centres unmarked) [Example 40]
Kill rate in % after 7 days [1]: 100% | Kill rate in % after 5 days [2]: 100%
